Patent US4808703A, “Novel 3-(4'-aminobutylamino) propylaminobleomycin derivatives” (Zaidan Hojin Biseibutsu Kagaku Kenku Kai, priority 1983, dated 1989)
Like-named read-outs stand apart in the source and are kept apart here.

Key:
[1] = test system: Mycobacterium smegmatis ATCC 607; test: Antibacterial activity by the agar cylinder plate method, Mycobacterium smegmatis ATCC607; type: cell-based; conditions: copper-containing compound, standard bleomycin A2 = 1,000 mcg potency/mg
Description: (§1) (1) Antibacterial activity against Mycobacterium smegmatis ATCC607 and Bacillus subtilis
(§2) The above activity ws determined by the agar cylinder plate method using the above microorganisms.

Bacillus subtilis = test: Antibacterial activity by the agar cylinder plate method, Bacillus subtilis; type: cell-based; conditions: copper-containing compound, standard bleomycin A2 = 1,000 mcg potency/mg
Description: as §1, §2

HeLa S3 cells = test: Growth-inhibiting effect on HeLa S3 cell cultured; type: cell-based; conditions: 3 days of incubation after addition
Description: (2) Growth-inhibiting effect on HeLa S3 cell cultured
A culture medium (10% calf serum-containing MEM) in a plastic dish was inoculated with HeLa S3 cells, and a bleomycin compound was added 2 days later. Incubation was continued for a further 3 days, and then the number of viable cells was counted. Growth inhibitory rate was calculated from the following equation:
Growth inhibitory rate (%)=100×(B-A)/(B-C)
where A is the final bacterial cell count 3 days after addition of the test sample, B is the final bacterial cell count in the control involving no addition of the test sample, and C is the bacterial cell count at the time of addition of the test sample.
ID50, the concentration producing a growth inhibitory rate of 50%, was estimated from the curve of the concentration of the test sample Vs. the growth inhibitory rate.

ICR mice [2] = conditions: mouse, in vivo
Description: (§3) ICR mice (male, 15-week-old) were used in groups of 10 each. The dose of each test compound was 5 mg/kg injected intraperitoneally once daily for 10 consecutive days. After the administration of the compound was completed, the animals were reared for 5 weeks for observation. Then, the animals were killed and autopsied so that the incidence and grade of pulmonary fibrosis were examined.
(§4) The incidence of pulmonary fibrosis was expressed as the number of mice developing pulmonary fibrosis in the group of mice administered the test compound. The grade of pulmonary fibrosis was expressed as the total score for pulmonary fibrosis divided by the total number of specimens.
(§5) 1 point: Accumulation of exudate in the alveoli, and fibrosis-like changes seen in the alveolar septum.
(§6) 2 points: Fibrosis seen at several sites.
4 points: Sporadic fibrosis.
(§7) 6 points: Extensive fibrosis (fibrosis seen in more than 170 of the total region).
(§8) The ratio in the table represents the ratio of the incidence of the test compound to that of bleomycin complex, or the ratio of the grade of the test compound to that of bleomycin complex.

ICR mice [3] = test: Pulmonary toxicity (fibrosis of the lung) in mice
Description: as §3, §4, §5, §6
4 points: Sporadic fibrosis.
as §7, §8

[4] = test system: Mycobacterium smegmatis ATCC 607; conditions: copper-free bleomycin A2; standard for both Mycobacterium smegmatis ATCC607 and Bacillus subtilis; cited from earlier work

| Compound | Antibacterial titer of copper-compound [1] [mcg potency/mg] | Antibacterial titer of copper-compound (Bacillus subtilis) [mcg potency/mg] | ID50 of copper-free compound (concentration producing a growth inhibitory rate of 50%) (HeLa S3 cells) [µg/mL] | Grade ratio (ICR mice [2]) | Incidence ratio (ICR mice [2]) | Incidence: Number of mice with pulmonary fibrosis/Number of mice in the treatment group (ICR mice [2]) | Incidence: Number of mice with pulmonary fibrosis/Number of mice in the treatment group (ICR mice [3]; 5 mg/kg i.p. once daily for 10 days, autopsy after 5 weeks of observation, count) | Incidence (%) of pulmonary fibrosis (ICR mice [3]; 5 mg/kg i.p. once daily for 10 days, autopsy after 5 weeks of observation, percentage in parentheses) [%] | Grade: Total score for pulmonary fibrosis/Total specimens (ICR mice [3]; 5 mg/kg i.p. once daily for 10 days, autopsy after 5 weeks, scores 0, 1, 2, 4, 6 points, fraction) | Grade of pulmonary fibrosis (total score divided by total number of specimens) (ICR mice [3]; 5 mg/kg i.p. once daily for 10 days, autopsy after 5 weeks, scores 0, 1, 2, 4, 6 points, value in parentheses) | Grade ratio (ICR mice [3]; grade of the test compound to that of bleomycin complex) | Incidence ratio (ICR mice [3]; incidence of the test compound to that of bleomycin complex) | Titer of the standard substance bleomycin A2 [4] |
| --- | --- | --- | --- | --- | --- | --- | --- | --- | --- | --- | --- | --- | --- |
| 3-(4'-cycloundecanylmethylaminobutylamino)propylaminobleomycin [Compound 7] | 24240 | 7330 | 0.16 | 0.00 | 0.00 | 0/10 |  |  |  |  |  |  |  |
| Cc1c(N)nc(C(CC(N)=O)NCC(N)C(N)=O)nc1C(=O)NC(C(=O)NC(C)C(O)C(C)C(=O)NC(C(=O)NCCc1nc(-c2nc(C(=O)NCCC[N+](C)(CCCCN(Cc3ccccc3)Cc3ccccc3)Cc3ccccc3)cs2)cs1)C(C)O)C(OC1OC(CO)C(O)C(O)C1OC1OC(CO)C(O)C(OC(N)=O)C1O)c1cnc[nH]1 (stereo not drawn) [Compound 12, 3-[N--methyl-N--benzyl-N--(4'-dibenzyl-aminobutyl)amino]propylaminobleomycin] | 13733 | 832 |  |  |  |  | 0/10 | 0 | 0/30 | 0 | 0.00 | 0.00 |  |
| Cc1c(N)nc(C(CC(N)=O)NCC(N)C(N)=O)nc1C(=O)NC(C(=O)NC(C)C(O)C(C)C(=O)NC(C(=O)NCCc1nc(-c2nc(C(=O)NCCC[S+](C)C)cs2)cs1)C(C)O)C(OC1OC(CO)C(O)C(O)C1OC1OC(CO)C(O)C(OC(N)=O)C1O)c1cnc[nH]1 (stereo not drawn) [bleomycin A2] |  |  |  |  |  |  |  |  |  |  |  |  | 1,000 mcg potency/mg |
